Values quoted from earlier work, collected in patent US20220331213A1, “ANTIMICROBIAL COMPOSITIONS COMPRISING A BENZOIC ACID ANALOG AND ACID PH BUFFERS” (eHealth Nexus LLC, priority 2021, published 2022).

Legend:
[1] = for pKa (acid dissociation constant): aqueous pKa; for pK1 / pK2: aqueous; for pK1: first dissociation of di-/polycarboxylic acid; for pK2: second dissociation of di-/polycarboxylic acid
[2] = test system: rhinovirus; conditions: 2% salicylic acid on skin

In the case of `O=C(O)CCCC(=O)O` [glutaric acid], the “pKa (acid dissociation constant)” value [1] is given as 3.76, the pK1 [1] is given as “about 4.3” and the pK2 [1] is given as “about 5.4”.

For `O=C(O)c1ccccc1O` [salicylic acid], the “residual anti-rhinovirus activity on the skin” value [2] is listed as “diminish over 3 hours”.

For `O=C(O)CC(O)(CC(=O)O)C(=O)O` [citric acid], the pK1 [1] is given as “about 2.9”.

For `O=C(O)[C@H](O)[C@@H](O)[C@H](O)[C@H](O)CO` [gluconic acid], the “pKa (acid dissociation constant)” value [1] is listed as 3.85.

In the case of `O=C(O)c1cccnc1` [nicotinic acid], the “pKa (acid dissociation constant)” value [1] is given as 4.82.

In the case of `O=C(O)CO` [glycolic acid], the “pKa (acid dissociation constant)” value [1] is given as about 3.8.

In the case of `O=C(O)CCCCC(=O)O` [adipic acid], the pK2 [1] is given as “about 5.4”.
